According to ChEMBL document CHEMBL1157638, “Fluorescent epigenetic small molecule induces expression of the tumor suppressor ras-association domain family 1A and inhibits human prostate xenograft” (J Med Chem, 2010):

Columns and labels:
OVCAR-5 = assay: Growth inhibition of human OVCAR5 cells assessed as cell growth at 10 uM relative to untreated control; type: functional; details: read-out: Activity
[1] = Growth inhibition of human […] cells; type: functional

What does the source list for `COc1ccc2c(c1)[nH]c1c(C)c(OS(=O)(=O)c3cccc4c(N(C)C)cccc34)ccc12`?
growth at 10 µM (OVCAR-5): 33%; GI50 [1]: 2.84 µM; TGI [1]: 24 µM; CC50 ([1]; read-out: LC50 (the source's name)): > 100 µM
